From ChEMBL document CHEMBL1255301, “Activity of Tigecycline against Coryneform Bacteria of Clinical Interest and Listeria monocytogenes” (2008)
Converted amounts (≈) assume the structure as drawn.

Legend:
Format in all cases: functional
Corynebacterium striatum = experiment: Antimicrobial activity against Corynebacterium striatum isolates by CLSI M45-A protocol based microdilution method
Prescottella equi = experiment: Antimicrobial activity against Rhodococcus equi isolates by CLSI M45-A protocol based microdilution method
[1] = test system: Corynebacterium pseudodiphtheriticum; experiment: Antimicrobial activity against Corynebacterium pseudodiphtheriticum isolates by CLSI M45-A protocol based microdilution method
[2] = test system: Corynebacterium amycolatum; experiment: Antimicrobial activity against Corynebacterium amycolatum isolates by CLSI M45-A protocol based microdilution method
Listeria monocytogenes = experiment: Antimicrobial activity against Listeria monocytogenes isolates by CLSI M45-A protocol based microdilution method
[3] = test system: Arcanobacterium haemolyticum; experiment: Antimicrobial activity against Arcanobacterium haemolyticum isolates by CLSI M45-A protocol based microdilution method
Corynebacterium jeikeium = experiment: Antimicrobial activity against Corynebacterium jeikeium isolates by CLSI M45-A protocol based microdilution method
Corynebacterium xerosis = experiment: Antimicrobial activity against Corynebacterium xerosis isolates by CLSI M45-A protocol based microdilution method
[4] = test system: Corynebacterium minutissimum; experiment: Antimicrobial activity against Corynebacterium minutissimum isolates by CLSI M45-A protocol based microdilution method
[5] = test system: Corynebacterium urealyticum; experiment: Antimicrobial activity against Corynebacterium urealyticum isolates by CLSI M45-A protocol based microdilution method
[6] = Rhodococcus (subgen. Prescottella) equi

Molecule | MIC50 (Corynebacterium striatum) [µg/mL] | MIC90 (Corynebacterium striatum) [µg/mL] | MIC50 (Prescottella equi; [6]) [µg/mL] | MIC90 (Prescottella equi; [6]) [µg/mL] | MIC50 [1] [µg/mL] | MIC90 [1] [µg/mL] | MIC50 [2] [µg/mL] | MIC90 [2] [µg/mL] | MIC50 (Listeria monocytogenes) [µg/mL] | MIC90 (Listeria monocytogenes) [µg/mL] | MIC50 [3] [µg/mL] | MIC90 [3] [µg/mL] | MIC (Corynebacterium jeikeium) [µg/mL] | MIC50 (Corynebacterium jeikeium) [µg/mL] | MIC50 (Corynebacterium xerosis) [µg/mL] | MIC50 [4] [µg/mL] | MIC50 [5] [µg/mL] | MIC90 [5] [µg/mL] | MIC90 (Corynebacterium jeikeium) [µg/mL] | MIC [3] [µg/mL] | other results
CN(C)[C@@H]1C(O)=C(C(N)=O)C(=O)[C@@]2(O)C(O)=C3C(=O)c4c(O)cccc4[C@@](C)(O)[C@H]3C[C@@H]12 [TETRACYCLINE] | 16 (≈ 36 µM) | > 32 | 8 (≈ 18 µM) | 8 (≈ 18 µM) | 0.125 (≈ 0.281 µM) | 0.25 (≈ 0.563 µM) | 0.125 (≈ 0.281 µM) | 0.5 (≈ 1.13 µM) | 0.5 (≈ 1.13 µM) | 0.5 (≈ 1.13 µM) | 0.125 (≈ 0.281 µM) | 16 (≈ 36 µM) | 0.06 (≈ 0.135 µM) | 0.06 (≈ 0.135 µM) | 0.5 (≈ 1.13 µM) | 0.25 (≈ 0.563 µM) | 0.25 (≈ 0.563 µM) | 16 (≈ 36 µM) |  |  | 
CN[C@H](CC(C)C)C(=O)N[C@H]1C(=O)N[C@@H](CC(N)=O)C(=O)N[C@H]2C(=O)N[C@H]3C(=O)N[C@H](C(=O)N[C@H](C(=O)O)c4cc(O)cc(O)c4-c4cc3ccc4O)[C@H](O)c3ccc(c(Cl)c3)Oc3cc2cc(c3O[C@@H]2O[C@H](CO)[C@@H](O)[C@H](O)[C@H]2O[C@H]2C[C@](C)(N)[C@H](O)[C@H](C)O2)Oc2ccc(cc2Cl)[C@H]1O [VANCOMYCIN] | 0.25 (≈ 0.173 µM) | 0.5 (≈ 0.345 µM) | 0.5 (≈ 0.345 µM) | 0.5 (≈ 0.345 µM) | 0.25 (≈ 0.173 µM) | 0.25 (≈ 0.173 µM) | 0.25 (≈ 0.173 µM) | 0.5 (≈ 0.345 µM) | 0.5 (≈ 0.345 µM) | 1 (≈ 0.69 µM) | 0.25 (≈ 0.173 µM) | 0.5 (≈ 0.345 µM) | 0.06 (≈ 0.0414 µM) | 0.06 (≈ 0.0414 µM) | 0.25 (≈ 0.173 µM) | 0.25 (≈ 0.173 µM) | 0.25 (≈ 0.173 µM) | 0.5 (≈ 0.345 µM) | 0.25 (≈ 0.173 µM) |  | 
C[C@H]1c2cccc(O)c2C(=O)C2=C(O)[C@]3(O)C(=O)C(C(N)=O)=C(O)[C@@H](N(C)C)[C@@H]3[C@@H](O)[C@@H]21.O [DOXYCYCLINE] | 8 | > 16 | 1 | 1 | 0.125 | 0.125 | 0.06 | 0.5 | 0.125 | 0.125 | 0.125 | 8 |  | 0.03 | 0.5 | 0.25 | 0.125 | 4 | 1 |  | 
CN(C)c1cc(NC(=O)CNC(C)(C)C)c(O)c2c1C[C@H]1C[C@H]3[C@H](N(C)C)C(O)=C(C(N)=O)C(=O)[C@@]3(O)C(O)=C1C2=O [TIGECYCLINE] | 0.5 (≈ 0.854 µM) | 1 (≈ 1.71 µM) | 0.25 (≈ 0.427 µM) | 0.5 (≈ 0.854 µM) | ≤ 0.015 | 0.03 (≈ 0.0512 µM) | 0.125 (≈ 0.213 µM) | 0.25 (≈ 0.427 µM) | 0.06 (≈ 0.102 µM) | 0.125 (≈ 0.213 µM) | ≤ 0.015 | ≤ 0.015 | ≤ 0.015 | ≤ 0.015 | 0.125 (≈ 0.213 µM) | ≤ 0.015 | 0.03 (≈ 0.0512 µM) | 0.06 (≈ 0.102 µM) | 0.03 (≈ 0.0512 µM) | ≤ 0.015 | MIC [1]: ≤ 0.015 µg/mL; MIC [4]: ≤ 0.003 µg/mL
GENTAMICIN | 2 | 8 |  |  | 0.06 | 0.06 | 8 | 16 | 0.25 | 0.125 | 0.5 | 0.5 |  | > 32 | 8 | 0.06 | > 32 | > 32 | > 32 |  | MIC50 (Prescottella equi): 0.5 µg/mL; MIC90 (Prescottella equi): 1 µg/mL; MIC (Corynebacterium xerosis): < 0.03 µg/mL; MIC [4]: < 0.03 µg/mL
C[C@H]1COc2c(N3CCN(C)CC3)c(F)cc3c(=O)c(C(=O)O)cn1c23.C[C@H]1COc2c(N3CCN(C)CC3)c(F)cc3c(=O)c(C(=O)O)cn1c23.O [LEVOFLOXACIN] | > 32 | > 32 | 1 | 2 | 0.25 | 4 | > 32 | > 32 | 0.5 | 1 | 0.5 | 0.5 |  | 4 | 32 | 0.06 | > 32 | > 32 | > 32 |  | 
CCC[C@@H]1C[C@@H](C(=O)N[C@@H]([C@H]2O[C@H](SC)[C@H](O)[C@@H](O)[C@H]2O)[C@H](C)Cl)N(C)C1 [CLINDAMYCIN] | > 16 | > 16 | 2 (≈ 4.71 µM) | 8 (≈ 18.8 µM) | > 16 | > 16 | > 16 | > 16 | 1 (≈ 2.35 µM) | 2 (≈ 4.71 µM) | ≤ 0.015 | ≤ 0.015 | > 16 | > 16 | > 16 | > 16 | > 16 | > 16 | > 16 | ≤ 0.015 | 
CO/N=C(\C(=O)N[C@@H]1C(=O)N2C(C(=O)O)=C(COC(N)=O)CS[C@H]12)c1ccco1 [CEFUROXIME] | 1 (≈ 2.36 µM) | 2 (≈ 4.71 µM) | 8 (≈ 18.9 µM) | 16 (≈ 37.7 µM) | 0.06 (≈ 0.141 µM) | 0.125 (≈ 0.295 µM) | 0.5 (≈ 1.18 µM) | 2 (≈ 4.71 µM) | > 32 | > 32 | 0.125 (≈ 0.295 µM) | 0.25 (≈ 0.589 µM) |  | > 32 | 2 (≈ 4.71 µM) | 0.5 (≈ 1.18 µM) | > 32 | > 32 | > 32 |  | 
CN(C)c1ccc(O)c2c1C[C@H]1C[C@H]3[C@H](N(C)C)C(O)=C(C(N)=O)C(=O)[C@@]3(O)C(O)=C1C2=O [MINOCYCLINE] | 4 (≈ 8.74 µM) | 8 (≈ 17.5 µM) | 0.25 (≈ 0.546 µM) | 0.25 (≈ 0.546 µM) | 0.06 (≈ 0.131 µM) | 0.06 (≈ 0.131 µM) | 0.06 (≈ 0.131 µM) | 0.25 (≈ 0.546 µM) | 0.06 (≈ 0.131 µM) | 0.06 (≈ 0.131 µM) | ≤ 0.03 | 4 (≈ 8.74 µM) | 0.06 (≈ 0.131 µM) | 0.06 (≈ 0.131 µM) | 0.25 (≈ 0.546 µM) | ≤ 0.03 | 0.06 (≈ 0.131 µM) | 0.5 (≈ 1.09 µM) | 0.25 (≈ 0.546 µM) | ≤ 0.03 | MIC [4]: ≤ 0.03 µg/mL
